Assay results: US11911408B2, “Synergistic formulations of adenosine receptor modulating agents and anticholinergics” (UNIVERSITY OF ALASKA FAIRBANKS, priority 2021, dated 2024)
Entries after “also recorded” stand apart in the source; their conditions may differ.

Columns and labels:
Sprague-Dawley rats [1] = test: 8-SPT dose determination (IV): atropine and 8-SPT bolus before CHA loading dose and infusion, 4° C. cooled surface; format: in vivo, rat; details: Atropine 1 mg/kg and SPT 10, 15 or 25 mg/kg (all doses) 15 min before CHA 1 mg/kg bolus, 0.25 mg/(kg·h) IV; n=5
Procedure: To define the dose-response relationship between 8-SPT combined with a constant concentration of atropine and CHA, three drug treatment combinations with varying doses of 8-SPT were tested. […] One hour of baseline data (body temperature, blood pressure, heart rate, and metabolism) were acquired before treatment. Rats received IV bolus of Atropine and 8-SPT 15 minutes before CHA. An IV loading dose of CHA was administered followed by a two hour continuous infusion of CHA. Rats were placed on a 4° C. cooled surface (previously described Laughlin et al). Surface temperature was manually adjusted to prevent body temperature from falling below 32° C.
Rats were placed inside a 12″×12″ clear acrylic box without bedding sitting on top of a custom built, aluminum hydronic surface. The aluminum surface was part of a cooling and heating system controlled by a thermostat in which circulating water was heated or cooled via thermoelectric Peltier plates and pumped through the aluminum cage floor. […] Food and water was provided ad libitum.

Sprague-Dawley rats [2] = test: Minimizing hemodynamic effects: antagonist pretreatments before IP CHA/CPA, rats on 4° C. cooled surface
Procedure: Fifteen different treatment combinations were administered to five male Sprague-Dawley rats with an average age of 314±88 days and weight of 453±44 g (mean±SD) in a modified cross over design as shown in Table 1). […] A washout period of at least one week was allowed between treatments. One hour of baseline data (body temperature, blood pressure, heart rate, and metabolism) was acquired before treatment. Rats received either a single IP injection of CHA or were pre-treated with antagonists 15 or 30 minutes prior to CHA drugs and were then placed on a 4° C. cooled surface (previously described Laughlin et al; herein incorporated by reference). Surface temperature was manually adjusted to prevent body temperature from falling below 32° C.
The pressure transducer was cannulated into the descending abdominal aorta.
Rats were placed inside a 12″×12″ clear acrylic box without bedding sitting on top of a custom built, aluminum hydronic surface. The aluminum surface was part of a cooling and heating system controlled by a thermostat in which circulating water was heated or cooled via thermoelectric Peltier plates and pumped through the aluminum cage floor. […] Food and water was provided ad libitum. The vascular access button was attached to a tether and swivel (Instech, VAHD115T, 375/D/22, Plymouth Meeting, Pa.) connected to a counter balance arm to provide freedom of movement.

[3] = 8-SPT 25 mg/kg 15 min before CHA (S15C), n=4-5
[4] = 8-SPT 25 mg/kg administered 30 min after CHA 1 mg/kg, n=4-5

## Cn1c(=O)c2[nH]c(-c3ccc(S(=O)(=O)O)cc3)nc2n(C)c1=O [8-SPT, 8-(p-sulfophenyl) theophylline]
Sprague-Dawley rats [1]
  CHA induced hypotension: effectively blocked
Sprague-Dawley rats [2]; [3]
  effect on heart rate compared to CHA 1 mg/kg alone: minimal effect
  effect on mean arterial pressure compared to CHA 1 mg/kg alone: minimal effect
Sprague-Dawley rats [2]; [4]
  core body temperature: increased significantly
  heart rate: increased significantly
  mean arterial pressure: increased significantly
  oxygen consumption: increased significantly
Sprague-Dawley rats [2]; 8-SPT 25 mg/kg alone 15 min before CHA 1 mg/kg (S15C), n=3-5
  prevention of CHA induced hypotension: not sufficient
Sprague-Dawley rats [2]; 8-SPT alone (pretreatment), dose not stated
  prevention of the initial drop in blood pressure or heart rate (hypotension) immediately following CHA administration: cannot prevent; also recorded: not sufficient
Sprague-Dawley rats [2]; 8-SPT alone, after metabolic suppression is stabilized
  increase of blood pressure: sufficient

## CC(C)NCC(O)COc1cccc2ccccc12 (centres unmarked) [propranolol]
Sprague-Dawley rats [2]; propranolol 4 mg/kg alone 15 min before CHA 1 mg/kg (P15C), n=3-5
  prevention of hypotension: not sufficient

## CN(C)CCOC(c1ccccc1)c1ccccc1 [diphenhydramine]
Sprague-Dawley rats [2]; diphenhydramine 4 mg/kg alone 30 min before CHA 1 mg/kg (D30C), n=3-5
  prevention of hypotension: not sufficient

## CN1C2CCC1CC(OC(=O)C(CO)c1ccccc1)C2 (centres unmarked) [Atropine, atropine]
Sprague-Dawley rats [2]; rat, in vivo
  prevention of CHA induced hypotension: not sufficient; also recorded: does not prevent

## OC[C@H]1O[C@@H](n2cnc3c(NC4CCCCC4)ncnc32)[C@H](O)[C@@H]1O [CHA, N6-Cyclohexyladenosine]
Sprague-Dawley rats [2]; 1 mg/kg at time point zero, n=4-5
  blood pressure effect of the agonist alone: hypotension
